{"source": "patent US20180369129A1", "about": "“MICROBIOME-COMPATIBLE COSMETICS” (AOBIOME LLC, priority 2015, published 2018)", "origin": "cited, not measured here", "key": {"NOS [1]": {"system": "NOS", "conditions": "reduction in basal NO levels"}, "NOS [2]": {"system": "NOS", "conditions": "rat pancreatic islets; through the induction of iNOS"}}}
{"smiles": "COC(=O)[C@@H](N)CCCNC(=N)N[N+](=O)[O-]", "note": "[L-NAME]", "values": [{"measurement": "effect of chronic inhibition of NOS on heart and kidneys", "setting": "NOS [1]", "result": "generalized fibrosis of the heart and kidneys"}, {"measurement": "total NO production", "setting": "NOS [2]", "result": "increases total NO production"}]}
